# Reference: ChEMBL document CHEMBL1201862, “PubChem BioAssay data set” (2004)
#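 Following 48 hours of exposure in 96-well plates, responses at five concentrations were used to interpolate endpoints linearly. Here, GI50 denotes the concentration required for 50% inhibition of growth.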 Active and inactive are the calls of the source. Cut-off read from the data, not from the text of the source: active = GI50 up to about 1.1 µM and inactive = higher.
# Key:
# Assay in all cases: NCI-60 cell line screen, 48 h
# 786-0 = tested on: 786-0
# A549 = tested on: A549
# ACHN = tested on: ACHN
# BT-549 = tested on: BT-549
# CAKI-1 = tested on: CAKI-1
# CCRF-CEM = tested on: CCRF-CEM
# COLO 205 = tested on: COLO 205
# DU-145 = tested on: DU-145
# EKVX = tested on: EKVX
# HCC 2998 = tested on: HCC 2998
# HCT-116 = tested on: HCT-116
# HCT-15 = tested on: HCT-15
# HL-60 = tested on: HL-60
# HOP-62 = tested on: HOP-62
# HT-29 = tested on: HT-29
# Hs-578T = tested on: Hs-578T
# IGROV-1 = tested on: IGROV-1
# K562 = tested on: K562
# KM12 = tested on: KM12
# LOX IMVI = tested on: LOX IMVI
# M14 = tested on: M14
# MCF7 = tested on: MCF7
# MDA-MB-435 = tested on: MDA-MB-435
# MDA-N = tested on: MDA-N
# MOLT-4 = tested on: MOLT-4
# Malme-3M = tested on: Malme-3M
# NCI-H226 = tested on: NCI-H226
# NCI-H23 = tested on: NCI-H23
# NCI-H460 = tested on: NCI-H460
# NCI-H522 = tested on: NCI-H522
# NCI/ADR-RES = tested on: NCI/ADR-RES
# OVCAR-3 = tested on: OVCAR-3
# OVCAR-4 = tested on: OVCAR-4
# OVCAR-5 = tested on: OVCAR-5
# OVCAR-8 = tested on: OVCAR-8
# PC-3 = tested on: PC-3
# RPMI-8226 = tested on: RPMI-8226
# SF-268 = tested on: SF-268
# SF-295 = tested on: SF-295
# SF-539 = tested on: SF-539
# SK-MEL-28 = tested on: SK-MEL-28
# SK-MEL-2 = tested on: SK-MEL-2
# SK-MEL-5 = tested on: SK-MEL-5
# SK-OV-3 = tested on: SK-OV-3
# SN12C = tested on: SN12C
# SNB-19 = tested on: SNB-19
# SNB-75 = tested on: SNB-75
# SR = tested on: SR
# SW-620 = tested on: SW-620
# T47D = tested on: T47D
# TK-10 = tested on: TK-10
# U-251 = tested on: U-251
# UACC-257 = tested on: UACC-257
# UACC-62 = tested on: UACC-62
# UO-31 = tested on: UO-31
smiles,measurement,setting,value
Cc1ncc([N+](=O)[O-])n1CCNC(=O)CCn1ccnc1[N+](=O)[O-],GI50,786-0,> 100 µM (inactive)
same,GI50,A549,> 100 µM (inactive)
same,GI50,ACHN,> 100 µM (inactive)
same,GI50,BT-549,> 100 µM (inactive)
same,GI50,CAKI-1,> 100 µM (inactive)
same,GI50,CCRF-CEM,> 100 µM (inactive)
same,GI50,COLO 205,> 100 µM (inactive)
same,GI50,DU-145,> 100 µM (inactive)
same,GI50,EKVX,> 100 µM (inactive)
same,GI50,HCC 2998,> 100 µM (inactive)
same,GI50,HCT-116,> 100 µM (inactive)
same,GI50,HCT-15,> 100 µM
same,GI50,HL-60,> 100 µM (inactive)
same,GI50,HOP-62,> 100 µM (inactive)
same,GI50,HT-29,> 100 µM (inactive)
same,GI50,Hs-578T,66.8 µM (inactive)
same,GI50,IGROV-1,> 100 µM (inactive)
same,GI50,K562,> 100 µM (inactive)
same,GI50,KM12,> 100 µM (inactive)
same,GI50,LOX IMVI,> 100 µM (inactive)
same,GI50,M14,> 100 µM (inactive)
same,GI50,MCF7,> 100 µM (inactive)
same,GI50,MDA-MB-435,> 100 µM (inactive)
same,GI50,MDA-N,> 100 µM (inactive)
same,GI50,MOLT-4,> 100 µM (inactive)
same,GI50,Malme-3M,> 100 µM (inactive)
same,GI50,NCI-H226,> 100 µM (inactive)
same,GI50,NCI-H23,> 100 µM (inactive)
same,GI50,NCI-H460,> 100 µM (inactive)
same,GI50,NCI-H522,> 100 µM (inactive)
same,GI50,NCI/ADR-RES,> 100 µM (inactive)
same,GI50,OVCAR-3,> 100 µM (inactive)
same,GI50,OVCAR-4,> 100 µM (inactive)
same,GI50,OVCAR-5,> 100 µM (inactive)
same,GI50,OVCAR-8,> 100 µM (inactive)
same,GI50,PC-3,> 100 µM (inactive)
same,GI50,RPMI-8226,> 100 µM (inactive)
same,GI50,SF-268,> 100 µM (inactive)
same,GI50,SF-295,> 100 µM (inactive)
same,GI50,SF-539,> 100 µM (inactive)
same,GI50,SK-MEL-28,> 100 µM (inactive)
same,GI50,SK-MEL-2,> 100 µM (inactive)
same,GI50,SK-MEL-5,> 100 µM (inactive)
same,GI50,SK-OV-3,> 100 µM (inactive)
same,GI50,SN12C,> 100 µM (inactive)
same,GI50,SNB-19,> 100 µM (inactive)
same,GI50,SNB-75,> 100 µM (inactive)
same,GI50,SR,> 100 µM (inactive)
same,GI50,SW-620,> 100 µM (inactive)
same,GI50,T47D,> 100 µM (inactive)
same,GI50,TK-10,> 100 µM (inactive)
same,GI50,U-251,> 100 µM (inactive)
same,GI50,UACC-257,> 100 µM (inactive)
same,GI50,UACC-62,> 100 µM (inactive)
same,GI50,UO-31,> 100 µM (inactive)
